Values belong to the compound of their own block, whether it stands above or below them. The source made the active and inactive calls.
Key:
[1] = biological target: Sphingosine 1-phosphate receptor 4 (Homo sapiens, UniProt O95977); experiment: Fluorescence dose response cell-based high throughput screening assay for agonists of the Sphingosine 1-Phosphate Receptor 4 (S1P4). [Related pubchem assays: 1509 (Primary screen.), 1523 (Confirmation screen in triplicates.)]; assay type: functional
[2] = biological target: Sphingosine 1-phosphate receptor 1 (Homo sapiens, UniProt P21453); experiment: Fluorescence-based counterscreen assay for S1P4 agonists: Cell-based dose response high throughput screening assay to identify agonists of the Sphingosine 1-Phosphate Receptor 1 (S1P1). [Related pubchem assays (depositor defined):AID1509, AID1523, AID1801, AID463107, AID463118, AID463119, AID463122, AID463123, AID463129, AID463225, AID504400, AID504460]; assay type: functional
Sequence of Sphingosine 1-phosphate receptor 1 (P21453 whole entry): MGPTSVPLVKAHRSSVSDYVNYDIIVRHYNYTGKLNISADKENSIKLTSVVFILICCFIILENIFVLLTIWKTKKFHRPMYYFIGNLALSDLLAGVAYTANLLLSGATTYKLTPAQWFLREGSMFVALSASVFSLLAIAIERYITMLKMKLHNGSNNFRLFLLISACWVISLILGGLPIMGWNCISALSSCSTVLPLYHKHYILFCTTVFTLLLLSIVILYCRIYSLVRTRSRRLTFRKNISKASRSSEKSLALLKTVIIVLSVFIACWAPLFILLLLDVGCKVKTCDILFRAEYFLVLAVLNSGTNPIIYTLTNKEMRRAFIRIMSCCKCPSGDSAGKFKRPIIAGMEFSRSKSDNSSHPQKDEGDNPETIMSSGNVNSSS

[3] = biological target: Sphingosine 1-phosphate receptor 2 (Homo sapiens, UniProt O95136); experiment: Dose Response Cell Based Assay for Agonists of the S1P2 Receptor. [Related pubchem assays: 729, 736, 843 ]; assay type: functional
Sequence of Sphingosine 1-phosphate receptor 2 (O95136 whole entry): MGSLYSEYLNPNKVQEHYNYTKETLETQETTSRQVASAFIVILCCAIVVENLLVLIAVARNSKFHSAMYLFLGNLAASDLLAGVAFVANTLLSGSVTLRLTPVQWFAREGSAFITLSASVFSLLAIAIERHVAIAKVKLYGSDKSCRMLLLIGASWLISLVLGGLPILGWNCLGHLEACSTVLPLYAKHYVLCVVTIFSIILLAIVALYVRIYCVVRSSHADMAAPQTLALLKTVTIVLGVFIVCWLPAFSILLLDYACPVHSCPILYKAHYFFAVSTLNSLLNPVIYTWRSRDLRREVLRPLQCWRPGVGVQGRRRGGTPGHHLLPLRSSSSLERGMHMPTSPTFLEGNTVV

CHO-K1 = experiment: (§1) Counterscreen for antagonists of the orexin 1 receptor (OX1R; HCRTR1): Homogeneous time resolved fluorescence (HTRF)-based cell-based dose response assay to identify antagonists of the parental CHO-K1 cell line. [Related pubchem assays (depositor defined):AID434989, AID435008, AID463079, AID485270, AID492963, AID492964, AID492965, AID493232, AID504699, AID504701]; assay type: functional; details: Cricetulus griseus
[4] = biological target: T1, Orexin/Hypocretin receptor type 1 (Homo sapiens, UniProt O43613); experiment: (§2) Fluorescence-based cell-based high throughput dose response assay for antagonists of the orexin 1 receptor (OX1R; HCRTR1). [Related pubchem assays (depositor defined):AID434989, AID435008, AID463079, AID485270, AID492963, AID492964, AID492965, AID493232, AID504717, AID504718]; assay type: functional
T1 sequence (O43613 whole entry): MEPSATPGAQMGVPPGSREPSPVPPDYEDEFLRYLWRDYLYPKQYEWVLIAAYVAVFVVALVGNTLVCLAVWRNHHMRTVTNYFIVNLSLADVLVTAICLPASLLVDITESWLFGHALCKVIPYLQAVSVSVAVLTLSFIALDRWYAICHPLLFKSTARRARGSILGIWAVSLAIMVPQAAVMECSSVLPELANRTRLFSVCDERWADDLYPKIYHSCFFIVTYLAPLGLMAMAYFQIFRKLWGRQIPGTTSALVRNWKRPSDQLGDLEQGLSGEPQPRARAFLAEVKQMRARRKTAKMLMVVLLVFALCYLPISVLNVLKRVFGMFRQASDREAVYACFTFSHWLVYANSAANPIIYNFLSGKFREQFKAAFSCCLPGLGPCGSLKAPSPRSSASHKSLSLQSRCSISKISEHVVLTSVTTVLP

[5] = as §1, with “Fluorescence-based” for “Homogeneous time resolved fluorescence (HTRF)-based”, “cell-based high throughput” for “cell-based”, “CHO” for “CHO-K1”; assay type: functional
[6] = biological target: T1, Orexin/Hypocretin receptor type 1; experiment: as §2, with “Homogeneous Time Resolved Fluorescence (HTRF)-based” for “Fluorescence-based”; assay type: functional
[7] = viability of uninfected HEp-2 cells – cell-based, HTS, cytotoxicity control for RSV inhibitor project, dose response (AID 2410); assay type: functional; details: human respiratory syncytial virus
SUMO-activating enzyme [8] = biological target: T2, SUMO-activating enzyme (Homo sapiens, UniProt Q9UBT2); experiment: blockers of SAE1/SAE2–UBC9 SUMO transfer – biochemical, HTRF, uHTS, primary screen (AID 2006); assay type: protein-complex assay
T2 sequence (Q9UBE0 whole entry): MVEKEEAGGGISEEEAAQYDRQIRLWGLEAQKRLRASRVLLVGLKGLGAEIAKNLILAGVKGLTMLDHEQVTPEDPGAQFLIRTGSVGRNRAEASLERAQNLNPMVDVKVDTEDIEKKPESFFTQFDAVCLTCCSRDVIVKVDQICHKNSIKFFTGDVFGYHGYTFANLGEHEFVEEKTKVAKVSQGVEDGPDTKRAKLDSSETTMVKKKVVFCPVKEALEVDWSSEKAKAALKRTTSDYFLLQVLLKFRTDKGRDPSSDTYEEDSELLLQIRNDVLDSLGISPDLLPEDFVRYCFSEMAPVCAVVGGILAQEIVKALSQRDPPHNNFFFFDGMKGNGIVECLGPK
T2 sequence (Q9UBT2 whole entry): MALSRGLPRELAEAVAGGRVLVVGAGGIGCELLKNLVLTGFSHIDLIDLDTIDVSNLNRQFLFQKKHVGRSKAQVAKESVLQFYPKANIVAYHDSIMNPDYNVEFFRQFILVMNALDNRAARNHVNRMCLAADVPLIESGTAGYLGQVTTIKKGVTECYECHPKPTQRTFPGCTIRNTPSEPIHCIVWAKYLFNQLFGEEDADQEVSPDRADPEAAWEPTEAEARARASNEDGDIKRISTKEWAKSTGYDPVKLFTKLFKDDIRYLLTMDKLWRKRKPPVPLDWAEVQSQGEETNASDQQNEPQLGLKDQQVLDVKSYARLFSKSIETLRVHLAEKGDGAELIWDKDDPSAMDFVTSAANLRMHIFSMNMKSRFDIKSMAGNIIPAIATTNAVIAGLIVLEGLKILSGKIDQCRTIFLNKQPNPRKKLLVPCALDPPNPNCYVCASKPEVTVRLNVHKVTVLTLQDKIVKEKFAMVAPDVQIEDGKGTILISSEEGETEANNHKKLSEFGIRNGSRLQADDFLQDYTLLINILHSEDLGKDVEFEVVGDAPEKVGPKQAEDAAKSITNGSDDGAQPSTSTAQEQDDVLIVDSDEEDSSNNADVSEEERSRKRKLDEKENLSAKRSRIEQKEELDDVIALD

SUMO-activating enzyme [9] = biological target: T2, SUMO-activating enzyme; experiment: blockers of UBC9-mediated SUMO conjugation – biochemical, AlphaScreen, SUMOylation inhibitor project, confirmation (AID 2018); assay type: functional
[10] = biological target: T3, Zinc finger protein mex-5 (Caenorhabditis elegans, UniProt Q9XUB2); experiment: potency of MEX-5 RNA-binding blockers – biochemical, C. elegans, fluorescence polarization, dose response (AID 1960)
T3 sequence (Q9XUB2 whole entry): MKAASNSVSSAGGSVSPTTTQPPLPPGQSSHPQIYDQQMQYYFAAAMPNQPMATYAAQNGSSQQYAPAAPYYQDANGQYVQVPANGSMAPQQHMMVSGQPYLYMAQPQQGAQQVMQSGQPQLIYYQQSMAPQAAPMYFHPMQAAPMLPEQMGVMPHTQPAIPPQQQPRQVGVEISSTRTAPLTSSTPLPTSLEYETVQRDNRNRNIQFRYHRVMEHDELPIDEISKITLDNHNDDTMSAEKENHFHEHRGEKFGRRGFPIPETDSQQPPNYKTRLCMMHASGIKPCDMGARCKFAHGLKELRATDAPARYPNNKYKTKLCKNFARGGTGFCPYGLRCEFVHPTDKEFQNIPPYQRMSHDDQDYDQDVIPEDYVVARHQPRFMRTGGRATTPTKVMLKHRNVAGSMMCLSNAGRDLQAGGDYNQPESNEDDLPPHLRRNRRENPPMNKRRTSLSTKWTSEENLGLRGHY

[11] = biological target: T4, RNA-binding protein pos-1 (Caenorhabditis elegans, UniProt G5EF15); experiment: disruptors of C. elegans POS-1 RNA interaction – biochemical, fluorescence polarization, dose response (AID 1964);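 further: purified POS-1 fused to maltose binding protein made in E. coli; potency of compounds blocking POS-1 binding to fluorescent RNA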
T4 sequence (G5EF15 whole entry): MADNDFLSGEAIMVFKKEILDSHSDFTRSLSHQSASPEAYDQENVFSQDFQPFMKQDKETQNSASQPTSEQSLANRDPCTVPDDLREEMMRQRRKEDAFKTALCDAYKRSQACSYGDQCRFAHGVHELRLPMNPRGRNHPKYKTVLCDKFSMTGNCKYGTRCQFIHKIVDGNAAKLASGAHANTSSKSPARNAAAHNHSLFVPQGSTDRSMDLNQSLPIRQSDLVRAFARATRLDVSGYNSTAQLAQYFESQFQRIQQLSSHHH

Sequence of Sphingosine 1-phosphate receptor 4 (O95977 whole entry): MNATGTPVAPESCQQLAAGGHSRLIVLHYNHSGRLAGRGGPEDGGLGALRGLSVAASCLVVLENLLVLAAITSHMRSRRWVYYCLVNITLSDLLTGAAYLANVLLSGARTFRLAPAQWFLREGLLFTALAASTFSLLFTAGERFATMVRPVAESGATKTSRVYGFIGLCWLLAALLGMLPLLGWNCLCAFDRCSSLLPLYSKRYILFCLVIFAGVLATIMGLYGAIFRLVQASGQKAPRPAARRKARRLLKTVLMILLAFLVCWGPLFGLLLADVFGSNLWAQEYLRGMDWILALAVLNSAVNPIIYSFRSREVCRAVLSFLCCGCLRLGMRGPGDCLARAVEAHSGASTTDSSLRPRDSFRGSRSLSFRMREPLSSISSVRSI

EC50 [1]: 9.2 µM (active)
EC50 [2]: 5.98 µM (active)
EC50 [3]: 2.71 µM (active)
Structure (SMILES): Clc1ccc(N2N=C(c3cccs3)CC2c2ccco2)cc1 (configuration not stated)

Structure (SMILES): Cc1cc(C)nc(N=C(N)Nc2ccc(SC(F)F)cc2)n1
IC50 (CHO-K1): > 66.2 µM (inactive)
IC50 [4]: 14.7 µM (inactive)
IC50 [5]: 22.1 µM (inactive)
IC50 [6]: 57 µM (inactive)
CC50 [7]: 16.1 µM (active)

IC50 (SUMO-activating enzyme [8]): 74.2 µM (active)
IC50 (SUMO-activating enzyme [9]): 4.2 µM (active)
EC50 [10]: 14.9 µM (active)
EC50 [11]: 21.6 µM (active)
Structure (SMILES): CC(=O)c1ccc(-c2ccc(/C=C(/Sc3n[nH]c(C)n3)C(=O)O)o2)cc1

Reference: ChEMBL document CHEMBL1201862, “PubChem BioAssay data set” (2004)
